Measurements taken from publication PMC10722513.

Experiment: Au(I)-catalysed intramolecular Trp C2-H alkynylation: peptide-EBX (4-ethynylbenzoyl bis-CF3-benziodoxole on Lys side chain or N-terminus) + AuCl·Me2S, open flask
Conditions: HFIP, 5.0 mM, 25.0 °C, 0.17 h

SMILES: CC[C@H](C)[C@@H]1NC(=O)[C@@H]2CCCN2C(=O)[C@H]([C@@H](C)CC)NC(=O)[C@@H]2CCCN2C(=O)[C@H](Cc2ccccc2)NC(=O)[C@H](C)NC(=O)c2ccc(cc2)C#Cc2[nH]c3ccccc3c2C[C@@H](C(N)=O)NC1=O [EBX-A-F-P-I-P-I-W-NH2]
- ring closure, isolated yield (from CC[C@H](C)[C@H](NC(=O)[C@@H]1CCCN1C(=O)[C@@H](NC(=O)[C@@H]1CCCN1C(=O)[C@H](Cc1ccccc1)NC(=O)[C@H](C)NC(=O)c1ccc(C#CI2OC(C(F)(F)F)(C(F)(F)F)c3ccccc32)cc1)[C@@H](C)CC)C(=O)N[C@@H](Cc1c[nH]c2ccccc12)C(N)=O, 30-membered ring): 53%

SMILES: CC(=O)N[C@H]1CCCCNC(=O)c2ccc(cc2)C#Cc2[nH]c3ccccc3c2C[C@@H](C(=O)O)NC(=O)[C@H](Cc2ccccc2)NC(=O)[C@H](C)NC(=O)[C@H](CC(=O)O)NC1=O [Ac-K(EBX)-D-A-F-W-OH]
- ring closure, isolated yield (from CC(=O)N[C@@H](CCCCNC(=O)c1ccc(C#CI2OC(C(F)(F)F)(C(F)(F)F)c3ccccc32)cc1)C(=O)N[C@@H](CC(=O)O)C(=O)N[C@@H](C)C(=O)N[C@@H](Cc1ccccc1)C(=O)N[C@@H](Cc1c[nH]c2ccccc12)C(=O)O, 28-membered ring): 51%

SMILES: N=C(N)NCCC[C@@H]1NC(=O)[C@H](CCCNC(=N)N)NC(=O)[C@H](CCCNC(=N)N)NC(=O)[C@H](CCCNC(=N)N)NC(=O)[C@H](Cc2ccc3ccccc3c2)NC(=O)[C@H](Cc2ccccc2)NC(=O)c2ccc(cc2)C#Cc2[nH]c3ccccc3c2C[C@@H](C(N)=O)NC1=O [EBX-F-Nal(2)-R-R-R-R-W-NH2]
- ring closure, isolated yield (from N=C(N)NCCC[C@H](NC(=O)[C@H](CCCNC(=N)N)NC(=O)[C@H](CCCNC(=N)N)NC(=O)[C@H](CCCNC(=N)N)NC(=O)[C@H](Cc1ccc2ccccc2c1)NC(=O)[C@H](Cc1ccccc1)NC(=O)c1ccc(C#CI2OC(C(F)(F)F)(C(F)(F)F)c3ccccc32)cc1)C(=O)N[C@@H](Cc1c[nH]c2ccccc12)C(N)=O, 30-membered ring): 57%

SMILES: C#CC[C@@H]1NC(=O)[C@@H](NC(C)=O)CCCCNC(=O)c2ccc(cc2)C#Cc2[nH]c3ccccc3c2C[C@@H](C(=O)O)NC(=O)[C@H](Cc2ccccc2)NC(=O)[C@H](C)NC1=O [Ac-K(EBX)-Pra-A-F-W-OH]
- ring closure, isolated yield (from C#CC[C@H](NC(=O)[C@H](CCCCNC(=O)c1ccc(C#CI2OC(C(F)(F)F)(C(F)(F)F)c3ccccc32)cc1)NC(C)=O)C(=O)N[C@@H](C)C(=O)N[C@@H](Cc1ccccc1)C(=O)N[C@@H](Cc1c[nH]c2ccccc12)C(=O)O, 28-membered ring): 57%

SMILES: C[C@@H]1NC(=O)[C@H](CC(=O)O)NC(=O)c2ccc(cc2)C#Cc2[nH]c3ccccc3c2C[C@@H](C(N)=O)NC(=O)[C@H](CCC(=O)O)NC(=O)CNC(=O)[C@H]([C@@H](C)O)NC(=O)[C@H](CCC(=O)O)NC1=O [EBX-D-A-E-T-G-E-W-NH2]
- ring closure, isolated yield (from C[C@H](NC(=O)[C@H](CC(=O)O)NC(=O)c1ccc(C#CI2OC(C(F)(F)F)(C(F)(F)F)c3ccccc32)cc1)C(=O)N[C@@H](CCC(=O)O)C(=O)N[C@H](C(=O)NCC(=O)N[C@@H](CCC(=O)O)C(=O)N[C@@H](Cc1c[nH]c2ccccc12)C(N)=O)[C@@H](C)O, 30-membered ring): 49%

SMILES: CC(=O)N[C@@H](CCC(=O)O)C(=O)N[C@H](C(=O)N[C@@H](Cc1ccccc1)C(=O)N[C@H]1CCCCNC(=O)c2ccc(cc2)C#Cc2[nH]c3ccccc3c2C[C@@H](C(=O)N[C@@H](C)C(=O)N[C@@H](CC(C)C)C(=O)N[C@@H](CC(C)C)C(=O)N[C@@H](Cc2c[nH]c3ccccc23)C(N)=O)NC(=O)[C@H](CC(C)C)NC(=O)[C@H](CC(=O)O)NC1=O)[C@@H](C)O [Ac-E-T-F-K(EBX)-D-L-W-A-L-L-W-NH2]
- ring closure, isolated yield (from CC(=O)N[C@@H](CCC(=O)O)C(=O)N[C@H](C(=O)N[C@@H](Cc1ccccc1)C(=O)N[C@@H](CCCCNC(=O)c1ccc(C#CI2OC(C(F)(F)F)(C(F)(F)F)c3ccccc32)cc1)C(=O)N[C@@H](CC(=O)O)C(=O)N[C@@H](CC(C)C)C(=O)N[C@@H](Cc1c[nH]c2ccccc12)C(=O)N[C@@H](C)C(=O)N[C@@H](CC(C)C)C(=O)N[C@@H](CC(C)C)C(=O)N[C@@H](Cc1c[nH]c2ccccc12)C(N)=O)[C@@H](C)O, 25-membered ring): 37%

SMILES: CC(=O)N[C@H]1CCCCNC(=O)c2ccc(cc2)C#Cc2[nH]c3ccccc3c2C[C@@H](C(=O)O)NC(=O)[C@H](Cc2ccccc2)NC(=O)[C@H](C)NC(=O)[C@H](CC(N)=O)NC1=O [Ac-K(EBX)-N-A-F-W-OH]
- ring closure, isolated yield (from CC(=O)N[C@@H](CCCCNC(=O)c1ccc(C#CI2OC(C(F)(F)F)(C(F)(F)F)c3ccccc32)cc1)C(=O)N[C@@H](CC(N)=O)C(=O)N[C@@H](C)C(=O)N[C@@H](Cc1ccccc1)C(=O)N[C@@H](Cc1c[nH]c2ccccc12)C(=O)O, 28-membered ring): 52%

SMILES: CC(C)C[C@@H]1NC(=O)[C@H](CC(=O)O)NC(=O)[C@H](CC(=O)O)NC(=O)[C@H](Cc2ccccc2)NC(=O)[C@H](Cc2ccccc2)NC(=O)CNC(=O)c2ccc(cc2)C#Cc2[nH]c3ccccc3c2C[C@@H](C(=O)N[C@@H](Cc2ccccc2)C(=O)N[C@H](C(=O)N[C@@H](C)C(N)=O)C(C)C)NC(=O)[C@H](Cc2ccc(O)cc2)NC1=O [EBX-G-F-F-D-D-L-Y-W-F-V-A-NH2]
- ring closure, isolated yield (from CC(C)C[C@H](NC(=O)[C@H](CC(=O)O)NC(=O)[C@H](CC(=O)O)NC(=O)[C@H](Cc1ccccc1)NC(=O)[C@H](Cc1ccccc1)NC(=O)CNC(=O)c1ccc(C#CI2OC(C(F)(F)F)(C(F)(F)F)c3ccccc32)cc1)C(=O)N[C@@H](Cc1ccc(O)cc1)C(=O)N[C@@H](Cc1c[nH]c2ccccc12)C(=O)N[C@@H](Cc1ccccc1)C(=O)N[C@H](C(=O)N[C@@H](C)C(N)=O)C(C)C, 33-membered ring): 56%

SMILES: CC(=O)N[C@H]1CCCCNC(=O)c2ccc(cc2)C#Cc2[nH]c3ccccc3c2C[C@@H](C(=O)O)NC(=O)[C@H](Cc2ccccc2)NC(=O)[C@H](C)NC(=O)[C@H](CCC(N)=O)NC1=O [Ac-K(EBX)-Q-A-F-W-OH]
- ring closure, isolated yield (from CC(=O)N[C@@H](CCCCNC(=O)c1ccc(C#CI2OC(C(F)(F)F)(C(F)(F)F)c3ccccc32)cc1)C(=O)N[C@@H](CCC(N)=O)C(=O)N[C@@H](C)C(=O)N[C@@H](Cc1ccccc1)C(=O)N[C@@H](Cc1c[nH]c2ccccc12)C(=O)O, 28-membered ring): 56%
